Source: ChEMBL document CHEMBL1136670, “Synthesis of quinolinyl/isoquinolinyl[a]pyrrolo [3,4-c] carbazoles as cyclin D1/CDK4 inhibitors” (Bioorg Med Chem Lett, 2003)
pIC50: −log10 of the molar value.

Key:
HCT-116 = assay: Inhibition of human colon carcinoma (HCT116) cell proliferation; assay type: functional, cell-based
[1] = target: Cyclin-dependent kinase 4/cyclin D1 (Homo sapiens, UniProt P11802); assay: Inhibitory activity against cyclin D1/ (cyclin dependent kinase) CDK4; assay type: protein-complex assay
NCI-H460 = assay: Inhibition of non-small cell lung carcinoma (NCI-460) cell proliferation; assay type: functional, cell-based; details: Homo sapiens

Sequence of Cyclin-dependent kinase 4/cyclin D1 (P11802 whole entry): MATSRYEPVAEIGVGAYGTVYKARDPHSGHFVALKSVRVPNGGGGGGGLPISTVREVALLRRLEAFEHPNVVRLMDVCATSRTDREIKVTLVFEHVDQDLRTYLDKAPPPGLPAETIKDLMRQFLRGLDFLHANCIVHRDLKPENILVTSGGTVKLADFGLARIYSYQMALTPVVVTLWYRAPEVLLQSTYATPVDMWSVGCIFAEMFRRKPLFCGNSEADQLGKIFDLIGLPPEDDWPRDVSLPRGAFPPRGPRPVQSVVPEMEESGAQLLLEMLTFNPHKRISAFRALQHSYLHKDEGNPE
Sequence of Cyclin-dependent kinase 4/cyclin D1 (P24385 whole entry, further chain): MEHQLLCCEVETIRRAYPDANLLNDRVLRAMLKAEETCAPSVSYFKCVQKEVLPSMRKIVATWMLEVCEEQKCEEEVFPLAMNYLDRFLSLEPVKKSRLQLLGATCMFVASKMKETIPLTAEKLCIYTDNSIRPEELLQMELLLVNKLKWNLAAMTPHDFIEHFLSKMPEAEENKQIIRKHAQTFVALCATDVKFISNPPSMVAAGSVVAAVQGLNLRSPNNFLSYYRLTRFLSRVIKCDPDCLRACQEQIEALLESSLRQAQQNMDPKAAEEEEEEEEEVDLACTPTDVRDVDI

SMILES | pIC50 (HCT-116) | pIC50 [1] | pIC50 (NCI-H460)
O=C1NC(=O)c2c1c1c(ccc3cccnc31)c1[nH]c3ccccc3c21 | 6.10 | < 5.70 | 5.45
CN(C)CCCn1c2ccccc2c2c3c(c4c5ccccc5cnc4c21)C(=O)NC3=O | 6.51 | 6.77 | 6.43
O=C1NC(=O)c2c1c1c3ccccc3cnc1c1c2c2ccccc2n1CCCCO |  | 5.94 | 
O=C1NC(=O)c2c1c1cnc3ccccc3c1c1c2c2ccccc2n1CCCO |  | 5.92 | 
O=C1NC(=O)c2c1c1c3ccccc3ncc1c1[nH]c3ccccc3c21 | 6.41 | 6.17 | 6.18
O=C1NC(=O)c2c1c1c3ccccc3cnc1c1[nH]c3c(CCO)cccc3c21 |  | < 5.70 | 
O=C1NC(=O)c2c1c1c3ccccc3cnc1c1[nH]c3ccccc3c21 |  | < 5.70 | 
O=C1NC(=O)c2c1c1c3ccccc3cnc1c1c2c2ccccc2n1CCCO | 6.80 | < 5.70 | 6.39
COc1ccc2c(c1)[nH]c1c3cnc4ccccc4c3c3c(c21)C(=O)NC3=O |  | 6.68 | 6.41
O=C1NC(=O)c2c1c1c3ccncc3ccc1c1[nH]c3ccccc3c21 | 6.89 | 7.16 | 7.13
O=C1NC(=O)c2c1c1nc3ccccc3cc1c1[nH]c3ccccc3c21 | 5.26 | < 5.00 | 5.39
O=C1NC(=O)c2c1c1c3ccccc3ncc1c1[nH]c3cc(Cl)ccc3c21 | 6.19 | < 5.70 | 6.35
CN(C)CCCCn1c2ccccc2c2c3c(c4c5ccccc5cnc4c21)C(=O)NC3=O |  | 5.94 | 
O=C1NC(=O)c2c1c1c3cccnc3ccc1c1[nH]c3ccccc3c21 | 6.37 | < 6.70 | 5.72
O=C1NC(=O)c2c1c1cnc3ccccc3c1c1[nH]c3ccccc3c21 | 5.71 | < 5.00 | 6.03
